Laboratory results taken from patent publication US20220202783A1, “Use Of ADAM9 Inhibitor As Immunomodulator” (China Medical University, priority 2019, published 2022).

What was measured:
Type in all cases: cell-based
Parameters in all cases: key to effect of inhibiting tumor cell growth: “+” represents that the compound has the effect of inhibiting tumor cell growth
[1] = test system: lung cancer cells (Bm7brmx2-1st); assay: cytotoxicity assay in Bm7brmx2-1st cells
Description: (§1) Please refer to FIG. 1A, FIG. 1B and Table 2, which show the analysis results of the compound of Formula (I) inhibiting ADAM9 activity. In FIG. 1A, Bm7 lung cancer cells were treated with the derivatives of the compound 6X-0310, and then cultured under anchorage-free culture condition. The expressions of ADAM9 and CDCP1 in Bm7 lung cancer cells were detected by Western blot, in which EF1α is an internal control, and mock represents Bm7 lung cancer cells without treatment. […] In the experiment, the compounds of Formula (I) of Example 1 to Example 32 were further performed cytotoxicity assay to measure the IC50 value of the compounds of Formula (I) of the present disclosure in lung cancer cell lines.

[2] = test system: lung cancer cells (H1299); assay: cytotoxicity assay in H1299 cells; details: for effect of inhibiting tumor cell growth: H1299; for IC50: Homo sapiens, NCI-H1299
Description: as §1

[3] = test system: lung cancer cells (Bm7brmx2); assay: cytotoxicity assay in Bm7brmx2 cells
Description: as §1

lung cancer cells (TC1) = assay: cytotoxicity assay in TC1 cells; details: for IC50: TC-1
Description: as §1

[4] = test system: lung cancer cells (Bm7brmx2-2nd); assay: cytotoxicity assay in Bm7brmx2-2nd cells
Description: as §1

lung cancer cells (A549) = assay: cytotoxicity assay in A549 cells; details: for IC50: Homo sapiens
Description: as §1

[5] = cytotoxicity assay in 293 cells; details: 293
[6] = test system: kidney cancer cells (293); assay: cytotoxicity assay in 293 cells; details: Homo sapiens, HEK293
HNOF = assay: cytotoxicity assay in HNOF cells; details: HNOF
[7] = cytotoxicity assay in HNOF cells; details: human, HNOF cells

SMILES: O=C1c2ccccc2C(=O)N1CCc1csc(Nc2ccc(Cl)c(Cl)c2)n1 [2X-0336]
- IC50 [1]: 37.6 µM
- effect of inhibiting tumor cell growth [1]: +
- effect of inhibiting tumor cell growth [2]: +
- IC50 [2]: 101 µM
- IC50 [3]: 117 µM
- effect of inhibiting tumor cell growth [3]: +
- effect of inhibiting tumor cell growth (lung cancer cells (TC1)): +
- IC50 (lung cancer cells (TC1)): 55.9 µM
- IC50 [4]: 63 µM
- effect of inhibiting tumor cell growth [4]: +
- effect of inhibiting tumor cell growth (lung cancer cells (A549)): +
- IC50 (lung cancer cells (A549)): 128 µM
- effect of inhibiting tumor cell growth [5]: +
- IC50 [6]: 58.7 µM
- effect of inhibiting tumor cell growth (HNOF): +
- IC50 [7]: 80 µM

SMILES: N#C/C(=C/c1ccc(OCc2ccccc2)cc1)c1nc(CCN2C(=O)c3ccccc3C2=O)cs1 [4X-0301]
- IC50 [1]: 61.2 µM
- effect of inhibiting tumor cell growth [1]: +
- effect of inhibiting tumor cell growth [2]: +
- IC50 [2]: 102 µM
- IC50 [3]: 128 µM
- effect of inhibiting tumor cell growth [3]: +
- effect of inhibiting tumor cell growth (lung cancer cells (TC1)): +
- IC50 (lung cancer cells (TC1)): 71.9 µM
- IC50 [4]: 310 µM
- effect of inhibiting tumor cell growth [4]: +
- effect of inhibiting tumor cell growth (lung cancer cells (A549)): +
- IC50 (lung cancer cells (A549)): 161 µM
- effect of inhibiting tumor cell growth [5]: +
- IC50 [6]: 49.5 µM
- effect of inhibiting tumor cell growth (HNOF): +
- IC50 [7]: 77.6 µM

SMILES: N#C/C(=C/c1cccc(C(F)(F)F)c1)c1nc(CCN2C(=O)c3ccccc3C2=O)cs1 [4X-0302]
- IC50 [1]: 520 µM
- effect of inhibiting tumor cell growth [1]: +
- effect of inhibiting tumor cell growth [2]: +
- IC50 [2]: 190 µM
- IC50 [3]: 852 µM
- effect of inhibiting tumor cell growth [3]: +
- effect of inhibiting tumor cell growth (lung cancer cells (TC1)): +
- IC50 (lung cancer cells (TC1)): 125 µM
- IC50 [4]: 434 µM
- effect of inhibiting tumor cell growth [4]: +
- effect of inhibiting tumor cell growth (lung cancer cells (A549)): +
- IC50 (lung cancer cells (A549)): 116 µM
- effect of inhibiting tumor cell growth [5]: +
- IC50 [6]: 55.7 µM
- effect of inhibiting tumor cell growth (HNOF): +
- IC50 [7]: 152 µM

SMILES: CC(C)CN1CCCc2cc(/C=C(\C#N)c3nc(CCN4C(=O)c5ccccc5C4=O)cs3)ccc21 [4X-0311]
- IC50 [1]: 34.4 µM
- effect of inhibiting tumor cell growth [1]: +
- effect of inhibiting tumor cell growth [2]: +
- IC50 [2]: > 125 µM
- IC50 [3]: 60.6 µM
- effect of inhibiting tumor cell growth [3]: +
- effect of inhibiting tumor cell growth (lung cancer cells (TC1)): +
- IC50 (lung cancer cells (TC1)): 345 µM
- IC50 [4]: 86.6 µM
- effect of inhibiting tumor cell growth [4]: +
- effect of inhibiting tumor cell growth (lung cancer cells (A549)): +
- IC50 (lung cancer cells (A549)): 238 µM
- effect of inhibiting tumor cell growth [5]: +
- IC50 [6]: 62.9 µM
- effect of inhibiting tumor cell growth (HNOF): +
- IC50 [7]: 80.7 µM

SMILES: N#C/C(=C\c1ccccc1Oc1ccc(Cl)cc1Cl)c1nc(CCN2C(=O)c3ccccc3C2=O)cs1 [4X-0312]
- IC50 [1]: 63.4 µM
- effect of inhibiting tumor cell growth [1]: +
- effect of inhibiting tumor cell growth [2]: +
- IC50 [2]: 121 µM
- IC50 [3]: 301 µM
- effect of inhibiting tumor cell growth [3]: +
- effect of inhibiting tumor cell growth (lung cancer cells (TC1)): +
- IC50 (lung cancer cells (TC1)): 136 µM
- IC50 [4]: 491 µM
- effect of inhibiting tumor cell growth [4]: +
- effect of inhibiting tumor cell growth (lung cancer cells (A549)): +
- IC50 (lung cancer cells (A549)): 644 µM
- effect of inhibiting tumor cell growth [5]: +
- IC50 [6]: 134 µM
- effect of inhibiting tumor cell growth (HNOF): +
- IC50 [7]: 262 µM

SMILES: N#C/C(=C\c1ccncc1)c1nc(CCN2C(=O)c3ccccc3C2=O)cs1 [4X-0314]
- IC50 [1]: 1420 µM
- effect of inhibiting tumor cell growth [1]: +
- effect of inhibiting tumor cell growth [2]: +
- IC50 [2]: 38400 µM
- IC50 [3]: 202 µM
- effect of inhibiting tumor cell growth [3]: +
- effect of inhibiting tumor cell growth (lung cancer cells (TC1)): +
- IC50 (lung cancer cells (TC1)): 176 µM
- IC50 [4]: 15700 µM
- effect of inhibiting tumor cell growth [4]: +
- effect of inhibiting tumor cell growth (lung cancer cells (A549)): +
- IC50 (lung cancer cells (A549)): 527 µM
- effect of inhibiting tumor cell growth [5]: +
- IC50 [6]: 269 µM
- effect of inhibiting tumor cell growth (HNOF): +
- IC50 [7]: 153 µM

SMILES: COc1ccc(C(=O)Nc2nc(CCN3C(=O)c4ccccc4C3=O)cs2)cc1OC [5X-0314]
- IC50 [1]: 51 µM
- effect of inhibiting tumor cell growth [1]: +
- effect of inhibiting tumor cell growth [2]: +
- IC50 [2]: 116 µM
- IC50 [3]: 66.5 µM
- effect of inhibiting tumor cell growth [3]: +
- effect of inhibiting tumor cell growth (lung cancer cells (TC1)): +
- IC50 (lung cancer cells (TC1)): 202 µM
- IC50 [4]: 90.6 µM
- effect of inhibiting tumor cell growth [4]: +
- effect of inhibiting tumor cell growth (lung cancer cells (A549)): +
- IC50 (lung cancer cells (A549)): 184 µM
- effect of inhibiting tumor cell growth [5]: +
- IC50 [6]: 49.3 µM
- effect of inhibiting tumor cell growth (HNOF): +
- IC50 [7]: 85.7 µM

SMILES: O=C(Nc1nc(CCN2C(=O)c3ccccc3C2=O)cs1)c1ccc([N+](=O)[O-])cc1 [6X-0202]
- IC50 [1]: 68.6 µM
- effect of inhibiting tumor cell growth [1]: +
- effect of inhibiting tumor cell growth [2]: +
- IC50 [2]: 335 µM
- IC50 [3]: > 125 µM
- effect of inhibiting tumor cell growth [3]: +
- effect of inhibiting tumor cell growth (lung cancer cells (TC1)): +
- IC50 (lung cancer cells (TC1)): 125 µM
- IC50 [4]: 1270 µM
- effect of inhibiting tumor cell growth [4]: +
- effect of inhibiting tumor cell growth (lung cancer cells (A549)): +
- IC50 (lung cancer cells (A549)): 766 µM
- effect of inhibiting tumor cell growth [5]: +
- IC50 [6]: 47.6 µM
- effect of inhibiting tumor cell growth (HNOF): +
- IC50 [7]: 78.3 µM

SMILES: N#C/C(=C/c1cc([N+](=O)O)ccc1Sc1ccccn1)c1nc(CCN2C(=O)c3ccccc3C2=O)cs1 [6X-0229]
- IC50 [1]: 56.2 µM
- effect of inhibiting tumor cell growth [1]: +
- effect of inhibiting tumor cell growth [2]: +
- IC50 [2]: 171 µM
- IC50 [3]: 374 µM
- effect of inhibiting tumor cell growth [3]: +
- effect of inhibiting tumor cell growth (lung cancer cells (TC1)): +
- IC50 (lung cancer cells (TC1)): 167 µM
- IC50 [4]: 113 µM
- effect of inhibiting tumor cell growth [4]: +
- effect of inhibiting tumor cell growth (lung cancer cells (A549)): +
- IC50 (lung cancer cells (A549)): 109 µM
- effect of inhibiting tumor cell growth [5]: +
- IC50 [6]: 133 µM
- effect of inhibiting tumor cell growth (HNOF): +
- IC50 [7]: 145 µM

SMILES: O=C1c2ccccc2C(=O)N1CCc1csc(OCc2cc(F)c(F)c(F)c2)n1 [13W-0300]
- effect of inhibiting tumor cell growth [1]: +
- effect of inhibiting tumor cell growth [2]: +
- effect of inhibiting tumor cell growth [3]: +
- effect of inhibiting tumor cell growth (lung cancer cells (TC1)): +
- effect of inhibiting tumor cell growth [4]: +
- effect of inhibiting tumor cell growth (lung cancer cells (A549)): +
- effect of inhibiting tumor cell growth [5]: +
- effect of inhibiting tumor cell growth (HNOF): +

SMILES: O=C1c2ccccc2C(=O)N1CCc1csc(SCc2ccc(C(F)(F)F)cc2)n1 [13W-0301]
- effect of inhibiting tumor cell growth [1]: +
- effect of inhibiting tumor cell growth [2]: +
- effect of inhibiting tumor cell growth [3]: +
- effect of inhibiting tumor cell growth (lung cancer cells (TC1)): +
- effect of inhibiting tumor cell growth [4]: +
- effect of inhibiting tumor cell growth (lung cancer cells (A549)): +
- effect of inhibiting tumor cell growth [5]: +
- effect of inhibiting tumor cell growth (HNOF): +

SMILES: O=C(c1nc(CCN2C(=O)c3ccccc3C2=O)cs1)C(O)c1cc2ccccc2o1 (centres unmarked) [13W-0302]
- effect of inhibiting tumor cell growth [1]: +
- effect of inhibiting tumor cell growth [2]: +
- effect of inhibiting tumor cell growth [3]: +
- effect of inhibiting tumor cell growth (lung cancer cells (TC1)): +
- effect of inhibiting tumor cell growth [4]: +
- effect of inhibiting tumor cell growth (lung cancer cells (A549)): +
- effect of inhibiting tumor cell growth [5]: +
- effect of inhibiting tumor cell growth (HNOF): +

SMILES: O=C1c2ccccc2C(=O)N1CCc1csc(-c2cc3ccccc3[nH]2)n1 [13W-0303]
- effect of inhibiting tumor cell growth [1]: +
- effect of inhibiting tumor cell growth [2]: +
- effect of inhibiting tumor cell growth [3]: +
- effect of inhibiting tumor cell growth (lung cancer cells (TC1)): +
- effect of inhibiting tumor cell growth [4]: +
- effect of inhibiting tumor cell growth (lung cancer cells (A549)): +
- effect of inhibiting tumor cell growth [5]: +
- effect of inhibiting tumor cell growth (HNOF): +

SMILES: O=C1c2ccccc2C(=O)N1CCc1csc(N2C(=O)c3ccccc3C2=O)n1 [13W-0305]
- effect of inhibiting tumor cell growth [1]: +
- effect of inhibiting tumor cell growth [2]: +
- effect of inhibiting tumor cell growth [3]: +
- effect of inhibiting tumor cell growth (lung cancer cells (TC1)): +
- effect of inhibiting tumor cell growth [4]: +
- effect of inhibiting tumor cell growth (lung cancer cells (A549)): +
- effect of inhibiting tumor cell growth [5]: +
- effect of inhibiting tumor cell growth (HNOF): +

SMILES: O=C1c2ccccc2C(=O)N1CCc1csc(N2CCCCC2)n1 [13W-0306]
- effect of inhibiting tumor cell growth [1]: +
- effect of inhibiting tumor cell growth [2]: +
- effect of inhibiting tumor cell growth [3]: +
- effect of inhibiting tumor cell growth (lung cancer cells (TC1)): +
- effect of inhibiting tumor cell growth [4]: +
- effect of inhibiting tumor cell growth (lung cancer cells (A549)): +
- effect of inhibiting tumor cell growth [5]: +
- effect of inhibiting tumor cell growth (HNOF): +

SMILES: O=C1CCC(=O)C1c1nc(CCN2C(=O)c3ccccc3C2=O)cs1 [13W-0307]
- effect of inhibiting tumor cell growth [1]: +
- effect of inhibiting tumor cell growth [2]: +
- effect of inhibiting tumor cell growth [3]: +
- effect of inhibiting tumor cell growth (lung cancer cells (TC1)): +
- effect of inhibiting tumor cell growth [4]: +
- effect of inhibiting tumor cell growth (lung cancer cells (A549)): +
- effect of inhibiting tumor cell growth [5]: +
- effect of inhibiting tumor cell growth (HNOF): +
